From patent US8497293B2, “Haloalkylsubstituted aryloxyalkylimidazolines for use as pesticides” (Syngenta Crop Protection LLC, priority 2007, dated 2013)
Where a name gives a salt, the structure may show the parent alone. Read-outs that look alike come from different tables or passages of the source. Blank lines part the entries; values can stand above or below the compound they belong to.

Assays:
[1] = tested on: Tetranychus urticae (Two-Spotted Spider Mite); experiment: Tetranychus urticae bean leaf disc spray test; type: in vivo; conditions: foliar, 192 h, read-out: control (egg mortality, larval mortality, adult mortality)
Description: Bean leaf discs on agar in 24-well microtiter plates wer sprayed with test solutions at an application rate of 200 ppm. After drying, the leaf discs are infested with mite populations of mixed ages. 8 days later, discs are checked for egg mortality, larval mortality, and adult mortality. The following compounds gave 100% control: 1.001, 1.003, 1.004, 1.005, 1.007, 1.016, 1.021, 1.022, 1.023, and 1.024. The following compounds gave 80% control: 1.019, 1.025 and 1.027.

[2] = tested on: Myzus persicae (Green Peach Aphid); experiment: Myzus persicae sunflower leaf disc spray test; type: in vivo; conditions: foliar, 144 h, read-out: control (mortality)
Description: Sunflower leaf discs were placed on agar in a 24-well microtiter plate and sprayed with test solutions at an application rate of 200 ppm. After drying, the leaf discs were infested with an aphid population of mixed ages. After an incubation period of 6 DAT, samples were checked for mortality. The following compounds gave 100% control: 1.001, 1.003, 1.004, 1.005, 1.006, 1.007, 1.008, 1.016, 1.017, 1.019, 1.021, 1.023 and 1.024. The following compounds gave 80% control: 1.002 and 1.026. The following compounds gave 50% control: 1.010, 1.018, 1.025 and 1.027.

[3] = tested on: Heliothis virescens (Tobacco Budworm); experiment: Heliothis virescens egg/larval test on artificial diet; type: in vivo; conditions: read-out: control (egg mortality, larval mortality, growth regulation)
Description: Eggs (0-24 h old) were placed in 24-well microtiter plate on artificial diet and treated with test solutions at an application rate of 200 ppm by pipetting. After an incubation period of 4 days, samples were checked for egg mortality, larval mortality, and growth regulation. The following compounds gave 100% control: 1.016, 1.020 and 1.024. The following compounds gave 80% control: 1.001, 1.003 and 1.022. The following compounds gave 50% control: 1.004, 1.007, and 1.014.

[4] = tested on: Myzus persicae (Green Peach Aphid); experiment: Myzus persicae pea seedling root (systemic) test; type: in vivo; conditions: 144 h, read-out: control (mortality)
Description: Roots of pea seedlings, infested with an aphid population of mixed ages, were placed directly in the test solutions of 24 ppm. 6 days after introduction, samples were checked for mortality. The following compounds gave 100% control: 1.001, 1.003, 1.016, 1.021, 1.022 and 1.024. The following compounds gave 80% control: 1.005, 1.019, 1.020 and 1.023.

[5] = 200 ppm by pipetting, eggs 0-24 h old on artificial diet, 4 days incubation

SMILES: CCC(Oc1cccc(C(F)(F)F)c1C)C1=NCCN1 (stereo not shown) [Compound 1.001, 2-[1-(2-methyl-3-trifluoromethyl-phenoxy)-propyl]-4,5-dihydro-1H-imidazole]
mortality at 200 ppm [1]: 100%
mortality at 200 ppm [2]: 100%
mortality at 200 ppm [3]: 80%
mortality at 24 ppm [4]: 100%

melting point: 185 to 187 °C
SMILES: CCc1c(OC(CC)C2=NCCN2)cccc1C(F)(F)F (stereo not shown) (as salt: oxalate)

SMILES: Cc1c(OC(C2=NCCN2)C(C)C)cccc1C(F)(F)F (stereo not shown) [Compound 1.005]
mortality at 200 ppm [1]: 100%
mortality at 200 ppm [2]: 100%
mortality at 24 ppm [4]: 80%

melting point: 127 to 133 °C
SMILES: CCC(Oc1cccc(C(F)(F)F)c1C(F)(F)F)C1=NCCN1 (stereo not shown)

SMILES: CCC(Oc1cccc(CF)c1C)C1=NCCN1 (stereo not shown) [Compound 1.022]
mortality at 200 ppm [1]: 100%
mortality at 200 ppm [3]: 80%
mortality at 24 ppm [4]: 100%

SMILES: CCC(Oc1cccc(C(F)F)c1C)C1=NCCN1 (stereo not shown) [Compound 1.023]
mortality at 200 ppm [1]: 100%
mortality at 200 ppm [2]: 100%
mortality at 24 ppm [4]: 80%

SMILES: CCC(Oc1cccc(C(F)F)c1C1CC1)C1=NCCN1 (stereo not shown) [Compound 1.017]
mortality at 200 ppm [2]: 100%

melting point: 150 to 157 °C
SMILES: CCC(Oc1cccc(C(F)(F)F)c1CO)C1=NCCN1 (stereo not shown) (as salt: chloride)

SMILES: Cc1c(OC(C2=NCCN2)C(C)C)cccc1C(F)F (stereo not shown) [Compound 1.021]
mortality at 200 ppm [1]: 100%
mortality at 200 ppm [2]: 100%
mortality at 24 ppm [4]: 100%

SMILES: CCCCC(Oc1cccc(CF)c1C)C1=NCCN1 (stereo not shown) [Compound 1.020]
mortality at 200 ppm [3, 5]: 100%
mortality at 24 ppm [4]: 80%

SMILES: CCCC(Oc1cccc(CF)c1C)C1=NCCN1 (stereo not shown) [Compound 1.024]
mortality at 200 ppm [1]: 100%
mortality at 200 ppm [2]: 100%
mortality at 200 ppm [3, 5]: 100%
mortality at 24 ppm [4]: 100%

SMILES: CCCC(Oc1cccc(C(F)F)c1C)C1=NCCN1 (stereo not shown) [Compound 1.016]
mortality at 200 ppm [1]: 100%
mortality at 200 ppm [2]: 100%
mortality at 200 ppm [3, 5]: 100%
mortality at 24 ppm [4]: 100%

SMILES: CCCC(Oc1cccc(C(F)(F)F)c1C)C1=NCCN1 (stereo not shown) [Compound 1.003]
mortality at 200 ppm [1]: 100%
mortality at 200 ppm [2]: 100%
mortality at 200 ppm [3, 5]: 80%
mortality at 24 ppm [4]: 100%

SMILES: CCCCC(Oc1cccc(C(F)(F)F)c1C)C1=NCCN1 (stereo not shown) [Compound 1.004]
mortality at 200 ppm [1]: 100%
mortality at 200 ppm [2]: 100%
mortality at 200 ppm [3, 5]: 50%

SMILES: CCC(Oc1cccc(C(F)(F)F)c1C(F)F)C1=NCCN1 (stereo not shown) [Compound 1.002]
mortality at 200 ppm [2]: 80%

melting point: 90 to 109 °C
SMILES: CCCC(Oc1cccc(C(F)(F)F)c1SC)C1=NCCN1 (stereo not shown) (as salt: maleate)

SMILES: CCCCC(Oc1cccc(C(F)F)c1C)C1=NCCN1 (stereo not shown) [Compound 1.019]
mortality at 200 ppm [1]: 80%
mortality at 200 ppm [2]: 100%
mortality at 24 ppm [4]: 80%

melting point: 112 to 120 °C
SMILES: CCCC(Oc1cccc(C(F)(F)F)c1S(C)(=O)=O)C1=NCCN1 (stereo not shown)
